US9464113B2, “Anti-heparan sulfate peptides that block herpes simplex virus infection in vivo” (The Board of Trustees of the University of Illinois, priority 2010, dated 2016)
No end group written: not given here.

Experiments:
[1] = tested on: HSV-1 (KOS) gL86; experiment: HSV-1 entry assay in CHO-K1 cells expressing gD receptors (3-OST-3, nectin-1, HVEM); assay type: cell-based, herpes simplex virus type-1; conditions: CHO-K1 cells expressing one of three gD receptors; dose-dependent
Description: (§1) HSV-1 entry was assayed as described in Shukla et al., Cell 99:13-22 (1999). CHO-K1 cells were grown in 6-well plates to subconfluence and then transfected with 2.5 μg of expression plasmids for gD receptors nectin-1 (pBG38), HVEM (pBec10), 3-OST-3 isoform (pDS43), or pCDNA3.1 (empty vector) using LipofectAMINE (Gibco/BRL). At 16 h post-transfection, the cells were replated into 96-well dishes for pre-incubation with peptides at different concentrations for 60 min at room temperature. In parallel, natural target cells (HeLa, CF, and RPE) were also pre-treated with the peptides for the same duration. In all cases, unbound peptides were removed after washing 3× with PBS. Thereafter, cells were infected for 6 h with a recombinant virus, HSV-1 (KOS) gL86, at multiple plaque forming units (PFUs) and β-galactosidase assays were performed using either a soluble substrate o-nitrophenyl-β-D-galactopyranoside (ONPG at 3.0 mg/ml; ImmunoPure, Pierce) or X-gal (Sigma). For the soluble substrate, the enzymatic activity was measured at 410 nm using a micro-plate reader (Spectra Max 190, Molecular Devices, Sunnyvale, Calif.). For the X-gal assay, cells were fixed (2% formaldehyde and 0.2% glutaraldehyde) and permeabilized (2 mM MgCl2, 0.01% deoxycholate, and 0.02% nonidet NP-40 (Sigma)). 1 ml of β-galactosidase reagent (1.0 mg/ml X-gal in ferricyanide buffer) was added to each well and incubated at 37° C. for 90 min before the cells were examined using bright field microscopy under the 20× objectives of the inverted microscope (Zeiss Axiovert 100 M).
Peptide sequences from individual plaques were deduced by determining the nucleotide sequences of the portion of the phage genome that encoded them. The predicted peptide sequences of about 200 plaques were determined and sorted into two groups on the basis of their targets. […] After 6 hr, the cells were washed, permeabilized, and incubated with ONPG substrate (3.0 mg/ml) for quantitation of β-galactosidase activity expressed from the input viral genome. The enzymatic activity was measured at an optical density of 410 nm (OD410). […]

[2] = tested on: HSV-1 (KOS) gL86; experiment: HSV-1 entry into HeLa cells (ONPG and X-gal); assay type: cell-based, herpes simplex virus type-1; conditions: for blocking of HSV-1 entry/infection: HeLa cells, 60 min pre-treatment, 25 pfu/cell, 6 hr
Description: as §1
The ability of the G1 and G2 peptides to block HSV-1 entry into natural target cells (HeLa and primary cultures of human CF) was compared. A similar dosage response curve was generated when HeLa (FIG. 2A) or CF (FIG. 2B) were pre-treated with G1 or G2 peptides during HSV-1 entry. […] HeLa cells (FIG. 2A) and primary cultures of human corneal fibroblasts (CF) (FIG. 2B) were tested. Cells in 96-well plates were pre-treated for 60 min with indicated mM concentrations of G1, G2, or Cp peptides. Mock-treated cells (abbreviated as C) served as a control. Pretreated cells were infected with a β galactosidase-expressing recombinant virus HSV-1 (KOS) HSV-1 gL86 (25 pfu/cell) for 6 hr. Viral entry was quantitated as described above in reference to FIG. 1. Confirmation of HSV-1 entry blocking activity of G1, G2, and control (Cp) peptides on a per cell basis was obtained after cells were infected as described above followed by X-gal (1.0 mg/ml) staining (Right panels), which yields an insoluble blue product upon hydrolysis by β-galactosidase expressed from the input viral genomes. […] Microscopy was performed using a 20× objective of Zeiss Axiovert 100.

[3] = tested on: GFP-expressing HHV-8 (rHHV-8.152); experiment: HHV-8 infection assay in HCjE cells; assay type: cell-based, human herpesvirus-8; conditions: for GFP-expression of HHV-8 (RFU): 48 h, fluorescence reader (FIG. 5C); for fluorescence from GFP virus replication (microscopy): fluorescent microscope (FIG. 5D)
Description: HCjE cells grown in chamber slides (Labteck) or in a 96 well plate were pre-treated with G1, G2, or control peptides for 60 min at room temperature followed by inoculation with recombinant rHHV-8.152, expressing the green fluorescent protein (GFP). Viera et al., J. Virol. 72:5182-5188 (2000). 48-hr post-infection, GFP-positive cells were visualized under microscope (Zeiss Axioverst 100M). HHV-8 infection was determined as relative fluorescence units (RFU) using GENios Pro plate reader (TECAN) at 480-nm excitation and 520-nm emission frequencies. Five measurements of negative control, positive control, and the test samples were performed. Data were expressed as mean±SD.
The ability to block HHV-8 infection was examined in human conjunctival epithelial (HCjE) cells, a natural target for HHV-8 infection. Human conjunctival (HCjE) cells were pre-incubated with G1, G2 or control peptide (Cp) were infected with HHV-8 virions for 48 h at 37° C. After incubation the cells were washed thoroughly to remove unbound viruses. GFP-expression of HHV-8 was quantitated by determining relative fluorescence units (RFU) using a 96-well fluorescence reader (TECAN). Emission of fluorescence indicates virus infection. […] This was confirmed by examination of individual cells by fluorescence microscopy.
Viral replication in HCjE cells was visualized under fluorescent microscope (Zeiss Axiovert 100) in cells that were pretreated with G1, G2 or Cp, as described above (FIG. 5D). Asterisks indicate significant difference from controls and/or treatments (P<0.05, t test) and error bars represent SD. […] G1 may have some activity but the virus can possibly overcome it easily.

Sequence	blocking of HSV-1 entry [1]	blocking of HSV-1 entry/infection [2]	GFP-expression of HHV-8 (RFU) [3]	fluorescence from GFP virus replication (microscopy) [3]	effectiveness in blocking entry compared with G1 ([2]; in virtually all cases (FIGS. 1 and 2))
LRSRTKIIRIRH [G1, LRSRTKIIRIRH]	able to block HSV-1 entry	effective in blocking infection of individual cells	not found to be statistically significant	fluorescence was more easily seen	–
MPRRRRIRRRQK [G2, MPRRRRIRRRQK]	able to block HSV-1 entry	effective in blocking infection of individual cells	relatively low GFP-expression	did not show fluorescence	slightly more effective in blocking entry than G1
RVCGSIGKEVLG [Cp, reference compound]	did not inhibit HSV-1 entry	no effect on HSV-1 entry	–	fluorescence was more easily seen	–
